Data taken from BindingDB's records for doi:10.1016/s0960-894x(03)00491-8 (Central Drug Research Institute, 2003).

target: Beta-3 adrenergic receptor (Homo sapiens, UniProt P13945); test: In vitro effective concentration against beta-3 adrenergic receptor.
Sequence (P13945 whole entry): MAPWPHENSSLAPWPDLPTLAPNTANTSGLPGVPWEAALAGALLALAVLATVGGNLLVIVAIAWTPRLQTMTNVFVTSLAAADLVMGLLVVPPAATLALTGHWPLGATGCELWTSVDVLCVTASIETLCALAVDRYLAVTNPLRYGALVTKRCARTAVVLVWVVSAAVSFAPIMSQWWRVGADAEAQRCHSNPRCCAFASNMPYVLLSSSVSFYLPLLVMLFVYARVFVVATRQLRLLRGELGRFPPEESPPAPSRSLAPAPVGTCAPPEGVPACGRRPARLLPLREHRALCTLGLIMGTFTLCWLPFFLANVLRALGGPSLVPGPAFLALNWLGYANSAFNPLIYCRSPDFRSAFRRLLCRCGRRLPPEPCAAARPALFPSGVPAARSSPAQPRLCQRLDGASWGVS

First: CCCCCCn1c(O)cn(-c2ccc(S(=O)(=O)Nc3ccc(CCNC[C@H](O)c4cccnc4)cc3)cc2)c1=O [4-(3-Hexyl-2,4-dioxo-imidazolidin-1-yl)-N-{4-[2-(2-hydroxy-2-pyridin-3-yl-ethylamino)-ethyl]-phenyl}-benzenesulfonamide]
Second: CCCCCCn1cc(O)n(-c2ccc(S(=O)(=O)Nc3ccc(CCNC[C@H](O)c4cccnc4)cc3)cc2)c1=O [4-(3-Hexyl-2,5-dioxo-imidazolidin-1-yl)-N-{4-[2-(2-hydroxy-2-pyridin-3-yl-ethylamino)-ethyl]-phenyl}-benzenesulfonamide]
The EC50 of the first is 21-fold higher: 77.6 nM for the first, 3.63 nM for the second.

Molecule `CCCCCCCCn1cc(O)n(-c2ccc(S(=O)(=O)Nc3ccc(CCNC[C@H](O)c4cccnc4)cc3)cc2)c1=O` [N-{4-[2-((R)-2-Hydroxy-2-pyridin-3-yl-ethylamino)-ethyl]-phenyl}-4-(3-octyl-2,5-dioxo-imidazolidin-1-yl)-benzenesulfonamide] has an EC50 of 63.1 nM.
